According to paper PMC10987949, “Inhibition of HIV-1 release by ADAM metalloproteinase inhibitors” (Frontiers in Microbiology, 2024):

Legend:
HIV-1LAI [1] = assay: HIV-1LAI infection of CD8-depleted PBMC; assay type: cell-based; settings: 100 μM
Description: The use of healthy human peripheral blood mononuclear cells (PBMC) is approved by the Department of Transfusion Medicine at the Clinical Center of National Institutes of Health. The use of PBMC from HIV-1 infected individuals for the study was approved under protocol #02-I-0202 by the Institutional Review Board (IRB) of National Institutes of Health with written informed consent from all donors. Peripheral blood mononuclear cells (PBMCs) from anonymous healthy donors were isolated by Ficoll-Paque gradient, and cultured in RPMI 1640 supplemented with 10% FBS, 1%Penicillin/streptomycin, 1% HEPES buffer and 20 U/mL IL-2 (culture media); and stimulated with 0.2 μg/mL anti-CD3 antibody (okt3) for 2 days. CD8^+ T cells were depleted prior to infection using the Stemcell CD8 positive selection kit according to manufacturer’s instructions. […] The infections were proceeded with or without inhibitors for 6 days or otherwise specified number of days and then analyzed by FACS staining using fluorescent labeled CD4-BV510, CD62L-APC and CD3-PEC7 antibodies (BD Biosciences). […] Replication competent HIV-1 viruses were obtained from the NIH AIDS Reagent Program^4, and expanded by infecting activated CD8-depleted PBMCs, and TCID50 was determined by p24 ELISA.

HIV-1 = assay: Ex vivo HIV-1 release from CD4 T cells of HIV-1 infected individuals; assay type: cell-based; settings: 50 μM; for effect on viral release (virion-associated HIV RNA): CD4 T cells from six HIV-1 infected individuals, day 2 and 4
Experimental: PBMCs were collected from the study subjects in accordance with a clinical protocol approved by the Institutional Review Board of the National Institute of Allergy and Infectious Diseases, National Institutes of Health under protocol #02-I-0202. CD4^+ T cells were isolated from the PBMCs using a human CD4 T cell separation system (StemCell Technologies, Catalog 19052) and were cultured with medium alone or with plate-bound anti-CD3 and soluble anti-CD28 antibody in the absence or presence of 50 μM of indicated compounds for 48 h. The copy number of cell-free viron-associated HIV RNA in the culture supernatants was quantified using the Cobas Ampliprep/Cobas Taqman HIV-1 Test, Version 2.0 (Roche Diagnostics) with droplet digital PCR (ddPCR, BIO-RAD) on day 2 and 4 of stimulation.

CD4 T cells = assay: RNA sequencing of CD4 T cells, pathway gene expression; assay type: cell-based, human; settings: compound alone
Experimental: CD4+ T cells were enriched from PBMC using EasySep™ human CD4 T cell enrichment kit ([…] Technologies Inc., MA 02142). To prepare samples for RNA sequencing, 5-10×10^6 PBMC or CD4+ T cells from either infected or uninfected samples were lysed for RNA isolation using RNeasy mini kit from QIAGEN. Samples of 2–10 μg RNA with concentration > 25 ng/μl and OD260/280 > 2.0 were used for cDNA library preparation of 250–300 base pair fragments in length, and high throughput sequencing using Illumina Miseq platform by Novogene (Novogene Corp Inc., CA 91914). A total of ~20×10^6 reads were recorded for each sample (Table 3). The mapping and assembly of raw sequencing reads, statistical and preliminary bioinformatic analyses were performed by Novogene. Subsequent gene expression analyses were performed based on expected Fragments Per Kilobase of transcript sequence per Millions base pairs sequenced (FPKM) using sequences of 20 reads or higher. All differential gene expression analyses were done between infected samples in the presence or absence of treatment and their donor matched uninfected controls. […] The RNAseq data is available in GEO database under accession number GSE218175.

HIV = tested on: HIV; design: method as in Kononchik et al., 2018; settings: ref Kononchik et al., 2018; cited from earlier work
HIV-1LAI [2] = assay: TEM of immunogold labeled CD62L on HIV-1LAI infected PBMC; assay type: cell-based
Experimental: For immunogold labeling, ~10^6 cells were washed with 2 mL PBS, gently centrifuged at 250 g for 5 min, resuspended in 100 μL of labeling buffer (PBS with 1% BSA), and incubated with 10 μg of mouse anti-human CD62L (clone FMC46, Thermofisher) for 1 h on ice. After removal of the primary antibody and wash, cells were incubated with 10 μg of secondary goat anti-mouse IgG H&L conjugated to 10 nm gold nanoparticles (Electron Microscopy Sciences) for 1 h on ice, then washed and fixed in 2.5% glutaraldehyde with 0.1 M sodium cacodylate at pH 7.4. Specimens for transmission electron microscopy (TEM) were fixed with 2.5% glutaraldehyde in 0.1 M Sorenson’s buffer. Samples were post-fixed 1 h with 0.5% osmium tetroxide/0.8% potassium ferricyanide, 1 h with 1% tannic acid and overnight with 1% uranyl acetate at 4°C. Samples were dehydrated with a graded ethanol series and embedded in Spurr’s resin. Thin sections were cut with a Leica UCT ultramicrotome (Vienna, Austria) stained with 1% uranyl acetate and Reynold’s lead citrate prior to viewing at 80 kV on a Hitachi 7500 transmission electron microscope (Hitachi-High Technologies, Tokyo, Japan). Approximately 100 images were acquired with an AMT digital camera system (AMT, Chazy, NY) from each sample on sections containing HIV virions. HIV virions are identified as ~100 nm sized particles with visible membrane enclosed capsid.

Structure (SMILES)	effect on X4 tropic HIV-1LAI infection (HIV-1LAI [1])	effect on viral release (virion-associated HIV RNA) (HIV-1)	transcription of type I interferon pathway genes (CD4 T cells; uninfected CD4 T cells)	expressions of cell cycle genes (CD4 T cells; without HIV-1 infection)	effect on HIV cell-to-cell transfer infections (HIV)	gold particles bound to cell surface virions (HIV-1LAI [2]; 50 μM, count in TEM images)	gold particles bound to released virions (HIV-1LAI [2]; 50 μM, count in TEM images)	fraction of virion-associated gold particles on CD62L-tethered (budding) virions (HIV-1LAI [2]; in presence of compound, DMSO 45%) [%]	fraction of virion-associated gold particles on released virions (HIV-1LAI [2]; in presence of compound, DMSO 55%) [%]	reductions in released virion-associated RNA (HIV-1; day 2 and 4 post stimulation)
CC1(C)SCCN(S(=O)(=O)c2ccc(Oc3ccncc3)cc2)[C@H]1C(=O)NO [prinomastat]	inhibited the X4 tropic HIV-1LAI infections	inhibited viral release in a portion of the samples								
CNC(=O)[C@H](Cc1ccccc1)NC(=O)[C@H](CC(C)C)[C@H](CSc1cccs1)C(=O)NO [BB-94, Batimastat]	inhibited the X4 tropic HIV-1LAI infections	inhibited the viral release from all individuals	does not suppress the transcription of type I interferon pathway genes	decreased slightly the expressions of cell cycle genes	effectively suppressed HIV cell-to-cell transfer infections	63	17	79	21	2–50 fold
